Target: Adenosylhomocysteinase (Homo sapiens, UniProt P23526)
Test: In vitro inhibitory activity against recombinant S-adenosyl-L-homocysteine hydrolase obtained from human placenta

Chain of Adenosylhomocysteinase (P23526 whole entry): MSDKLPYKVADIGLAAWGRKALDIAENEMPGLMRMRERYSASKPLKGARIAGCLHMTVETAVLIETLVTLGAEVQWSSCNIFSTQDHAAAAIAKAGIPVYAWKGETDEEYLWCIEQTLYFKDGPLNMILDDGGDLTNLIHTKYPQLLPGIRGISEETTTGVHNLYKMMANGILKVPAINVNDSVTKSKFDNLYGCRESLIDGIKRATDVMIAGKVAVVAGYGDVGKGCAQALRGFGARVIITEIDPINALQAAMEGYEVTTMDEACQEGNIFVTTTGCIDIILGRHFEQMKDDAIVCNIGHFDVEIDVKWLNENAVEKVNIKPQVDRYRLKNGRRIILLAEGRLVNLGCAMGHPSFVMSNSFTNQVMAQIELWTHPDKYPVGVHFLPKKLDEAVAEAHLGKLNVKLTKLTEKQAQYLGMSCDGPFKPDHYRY

IC50 | Structure (SMILES)
0.89 µM | Nc1ncnc2c1ncn2[C@@H]1C=C(CO)[C@@H](O)[C@H]1O [NEOPLANOCIN A]
8.9 µM | Nc1ncnc2c1ncn2[C@@H]1C(F)=C[C@@H](O)[C@H]1O
8.7 µM | Nc1ncnc2c1ncn2[C@@H]1C=C[C@@H](O)[C@H]1O
0.47 µM | Nc1ncnc2c1ncn2[C@@H]1C(F)=C(CO)[C@@H](O)[C@H]1O [FLUORO-NEPLANOCIN A]
